# Experimental data from article PMC10542788, “Discovery of a cystathionine γ-lyase (CSE) selective inhibitor targeting active-site pyridoxal 5′-phosphate (PLP) via Schiff base formation” (Scientific Reports, 2023).
# Key:
# methionine γ-lyase (MGL) = test system: methionine γ-lyase (MGL); parameters: method as in PMID 12920135; settings: cited from earlier work
# ALT = ALT inhibition, coupled absorbance assay (NADH, 340 nm); format: biochemical; settings: 30 µM
# Method: (§1) The selectivity of 1, 2 and PAG for rCSE over other RSS-producing enzymes, CBS and 3MST, was examined (Fig. 4a). CBS is a PLP-dependent enzyme, like CSE, and produces H2S from cysteine and homocysteine as substrates. 3MST is also an H2S-producing enzyme, but is not PLP-dependent and uses 3-mercaptopyruvate as a substrate. The amount of H2S produced by CBS or 3MST was evaluated in the presence or absence of the inhibitor by measuring the fluorescence intensity of HSip-1. […] We also examined the inhibitory activity towards two other PLP-dependent enzymes, MGL and ALT. MGL metabolizes L-methionine to α-ketobutyric acid, methanethiol and ammonia, and is inhibited by PAG[14]. MGL also produces H2S from homocysteine as a substrate, and this activity of MGL can be measured by fluorescence detection with HSip-1. […] The enzymatic activity of ALT can be assessed by means of a coupled assay using the reduction of pyruvate to L-lactate with lactate dehydrogenase and NADH and measuring the change in absorption of NADH.
# An alanine aminotransferase activity assay kit (BioVision, Inc.) was used to measure the activity of ALT. A mixture of L-alanine, NADH, LDH (lactate dehydrogenase) and ALT was incubated at 37 °C for 15 min, then α-ketoglutarate was added to the mixture and the absorbance at 340 nm was measured with a microplate reader.
# [1] = test system: L-alanine transaminase (ALT); parameters: method as in PMID 7364752; settings: cited from earlier work
# MGL = MGL inhibition, HSip-1 fluorescence; format: biochemical; settings: 30 µM
# Method: as §1
# 10 µL of 200 µM homocysteine in 30 mM HEPES (pH 7.4) was added to 10 µL of a solution containing 20 µg/mL MGL (Sigma-Aldrich), 100 µM PLP, 1 µM HSip-1, 0.005% tween 20 and various concentrations of the inhibitor (0.5% DMSO as a cosolvent). The mixture was incubated at 25 °C for 100 min and the fluorescence intensity of HSip-1 was measured with a microplate reader.
# rat CSE (rCSE) = molecular target: T1, rat CSE (rCSE) (Rattus norvegicus, UniProt P18757); assay: rCSE inhibition, H2S detection by fluorescence of HSip-1; format: biochemical; settings: for IC50: fluorescence assay with HSip-1, 1.5 mM cysteine, 100 μM PLP, mean ± S.E., read-out: IC50, inhibitory activity towards rCSE
# T1 construct: His-tag (C); made in house; host or cells: E. coli BL21
# Method: The developed assay system employs a plate reader to detect H2S production by CSE as a fluorescence signal in a solution containing 30 μg/mL rat CSE (rCSE), 1 μM HSip-1, 100 μM pyridoxal-5′-phosphate (PLP) and 1.5 mM cysteine (a substrate) in a 384-well plate format (Fig. 1b). A large amount of rCSE was expressed in E. coli and purified on a Ni Sepharose 6 Fast Flow module. We then performed screening of a chemical library consisting of 161,600 compounds (from the Drug Discovery Initiative, the University of Tokyo) for CSE inhibitors (Fig. 1c). […] Then, a confirmation test for repeatability (n = 4) of the 160 compounds selected in the 1st screening was performed to exclude false-positives. In this step, we also excluded cysteine-reactive compounds by changing the addition order of the rCSE and cysteine (substrate) solutions. In other words, in the 1st screening, the enzyme solution was firstly added to each library compound, while in the confirmation test for repeatability of the hit compounds in the 1st screening, we firstly added the cysteine solution to each compound. This enabled us to identify and exclude cysteine-reactive compounds, based on their reaction with the added cysteine. These procedures left 80 compounds showing both more than 40% inhibition at 10 µM and similar % inhibition of rCSE irrespective of the addition order of the rCSE and cysteine solutions. In the 2nd screening, we examined the reactivity of these 80 compounds with H2S using an H2S donor[17] to exclude H2S-reactive compounds. […] In this assay, we selected 13 compounds which were non-reactive to H2S, but one was relatively unstable and two of them were the same compound, so that 11 compounds were finally selected. These compounds included some hydrazine and hydrazide derivatives, so we performed titration assay of the selected 11 compounds together with 9 commercially available hydrazine and hydrazide compounds (Supplementary Fig. S3) and calculated the half-maximal (50%) inhibitory concentration (IC50) of each compound.
# The fluorescence intensity of HSip-1 was measured (λex = 490 nm, λem = 510 nm) with a microplate reader (EnVision, Perkin Elmer).
# 10 µL of 1.5 mM cysteine solution in 30 mM HEPES (pH 7.4) was added to 10 µL of solution containing 30 µg/mL rCSE, 100 µM PLP, 1 µM HSip-1, 0.005% tween 20 and the test compound (0.5% DMSO as a cosolvent). The mixture was incubated at 25 °C for 3 h and the fluorescence intensity of HSip-1 was measured with a microplate reader.
IC50 (rat CSE (rCSE)),SMILES,inhibition of MGL (methionine γ-lyase (MGL)),inhibitory activity towards ALT / selectivity for CSE over ALT (ALT),inhibition of ALT [1],inhibitory activity towards MGL / selectivity for CSE over MGL (MGL),"selectivity for CSE over other enzymes (CBS, 3MST, MGL, ALT) (rat CSE (rCSE); 3 µM)"
–,"C#CCC(N)C(=O)O (racemic) [PAG, D,L-Propargylglycine, reference compound]",inhibited,inhibited both MGL and ALT,inhibited,inhibited both MGL and ALT,–
0.43 ± 0.02 µM,CNC(=O)C(=O)NN [Compound 2],–,some inhibitory activity towards MGL and ALT,–,some inhibitory activity towards MGL and ALT,high selectivity for CSE
> 100 µM,CCNC(=O)C(=O)NN [Compound 3],–,–,–,–,–
> 100 µM,NNC(=O)C(=O)Nc1ccccc1 [Compound 4],–,–,–,–,–
